Laboratory results from patent US20050074810A1, “Method for non-invasilvely determining the relative levels of two biological substances” (priority 2001, published 2005).

Experiment: In vitro reverse iontophoretic extraction of valproate and glutamate (Example 1)
Type: in vitro ADME, pig
Conditions: glutamate 60 μM
Description: The cathodal chamber was sampled only at the end of 5 hours of current passage.
Subsequent to this first period of 5 hours at 0.4 mA, a reduced current of 0.1 mA was passed for the next 19 hours, at the end of which both anodal and cathodal chambers were sampled.
The total experiment therefore lasted 24 hours.

[1] = subdermal valproate 21 μM, 4-5 h, 0.4 mA
[2] = subdermal valproate 21 μM, 5-24 h, 0.1 mA
[3] = subdermal valproate 35 μM, 4-5 h, 0.4 mA
[4] = subdermal valproate 35 μM, 5-24 h, 0.1 mA
[5] = subdermal valproate 70 μM, 4-5 h, 0.4 mA
[6] = subdermal valproate 70 μM, 5-24 h, 0.1 mA
[7] = subdermal valproate 104.5 μM, 4-5 h, 0.4 mA
[8] = subdermal valproate 104.5 μM, 5-24 h, 0.1 mA

## N[C@@H](CCC(=O)O)C(=O)O [Glutamate, glutamate]
Subdermal valproate 21 μM, 0-1 h
  Transport number (×10^6): 7.89 ± 4.51 ×10^6
Subdermal valproate 21 μM, 0-1 h, 0.4 mA
  Extraction flux: 118 pmoles · h^−1 · cm^−2
Subdermal valproate 21 μM, 1-2 h
  Transport number (×10^6): 20.6 ± 7.92 ×10^6
Subdermal valproate 21 μM, 1-2 h, 0.4 mA
  Extraction flux: 308 pmoles · h^−1 · cm^−2
Subdermal valproate 21 μM, 2-3 h
  Transport number (×10^6): 29.5 ± 7.38 ×10^6
Subdermal valproate 21 μM, 2-3 h, 0.4 mA
  Extraction flux: 440 pmoles · h^−1 · cm^−2
Subdermal valproate 21 μM, 3-4 h
  Transport number (×10^6): 32.1 ± 5.77 ×10^6
Subdermal valproate 21 μM, 3-4 h, 0.4 mA
  Extraction flux: 479 pmoles · h^−1 · cm^−2
[1]
  Extraction flux: 570 pmoles · h^−1 · cm^−2
  Transport number (×10^6): 38.2 ± 5.19 ×10^6
[2]
  Extraction flux: 142 pmoles · h^−1 · cm^−2
  Transport number (×10^6): 38.1 ± 6.24 ×10^6
Subdermal valproate 35 μM, 0-1 h
  Transport number (×10^6): 10.4 ± 5.47 ×10^6
Subdermal valproate 35 μM, 0-1 h, 0.4 mA
  Extraction flux: 155 pmoles · h^−1 · cm^−2
Subdermal valproate 35 μM, 1-2 h
  Transport number (×10^6): 24.6 ± 5.83 ×10^6
Subdermal valproate 35 μM, 1-2 h, 0.4 mA
  Extraction flux: 367 pmoles · h^−1 · cm^−2
Subdermal valproate 35 μM, 2-3 h
  Transport number (×10^6): 32.4 ± 5.71 ×10^6
Subdermal valproate 35 μM, 2-3 h, 0.4 mA
  Extraction flux: 484 pmoles · h^−1 · cm^−2
Subdermal valproate 35 μM, 3-4 h
  Transport number (×10^6): 38.2 ± 2.84 ×10^6
Subdermal valproate 35 μM, 3-4 h, 0.4 mA
  Extraction flux: 571 pmoles · h^−1 · cm^−2
[3]
  Extraction flux: 588 pmoles · h^−1 · cm^−2
  Transport number (×10^6): 39.4 ± 3.28 ×10^6
[4]
  Extraction flux: 143 pmoles · h^−1 · cm^−2
  Transport number (×10^6): 38.3 ± 4.24 ×10^6
Subdermal valproate 70 μM, 0-1 h
  Transport number (×10^6): 5.92 ± 3.03 ×10^6
Subdermal valproate 70 μM, 0-1 h, 0.4 mA
  Extraction flux: 88 pmoles · h^−1 · cm^−2
Subdermal valproate 70 μM, 1-2 h
  Transport number (×10^6): 17.9 ± 6.88 ×10^6
Subdermal valproate 70 μM, 1-2 h, 0.4 mA
  Extraction flux: 267 pmoles · h^−1 · cm^−2
Subdermal valproate 70 μM, 2-3 h
  Transport number (×10^6): 26.0 ± 6.32 ×10^6
Subdermal valproate 70 μM, 2-3 h, 0.4 mA
  Extraction flux: 388 pmoles · h^−1 · cm^−2
Subdermal valproate 70 μM, 3-4 h
  Transport number (×10^6): 33.1 ± 6.80 ×10^6
Subdermal valproate 70 μM, 3-4 h, 0.4 mA
  Extraction flux: 494 pmoles · h^−1 · cm^−2
[5]
  Extraction flux: 524 pmoles · h^−1 · cm^−2
  Transport number (×10^6): 35.1 ± 5.52 ×10^6
[6]
  Extraction flux: 146 pmoles · h^−1 · cm^−2
  Transport number (×10^6): 39.2 ± 6.45 ×10^6
Subdermal valproate 104.5 μM, 0-1 h
  Transport number (×10^6): 9.92 ± 4.20 ×10^6
Subdermal valproate 104.5 μM, 0-1 h, 0.4 mA
  Extraction flux: 148 pmoles · h^−1 · cm^−2
Subdermal valproate 104.5 μM, 1-2 h
  Transport number (×10^6): 24.2 ± 4.79 ×10^6
Subdermal valproate 104.5 μM, 1-2 h, 0.4 mA
  Extraction flux: 361 pmoles · h^−1 · cm^−2
Subdermal valproate 104.5 μM, 2-3 h
  Transport number (×10^6): 32.8 ± 3.60 ×10^6
Subdermal valproate 104.5 μM, 2-3 h, 0.4 mA
  Extraction flux: 490 pmoles · h^−1 · cm^−2
Subdermal valproate 104.5 μM, 3-4 h
  Transport number (×10^6): 37.9 ± 4.98 ×10^6
Subdermal valproate 104.5 μM, 3-4 h, 0.4 mA
  Extraction flux: 566 pmoles · h^−1 · cm^−2
[7]
  Extraction flux: 599 pmoles · h^−1 · cm^−2
  Transport number (×10^6): 40.1 ± 5.16 ×10^6
[8]
  Extraction flux: 157 pmoles · h^−1 · cm^−2
  Transport number (×10^6): 42.2 ± 6.22 ×10^6
